Measured values as given in EP1614420A2, “Treatment of hypertension, angina and other disorders using (-) amlodipine” (Sepracor Inc., priority 1992, dated 1993).

Assays:
β-adrenergic = conditions: L-form versus D-enantiomer; cited from earlier work
[1] = test system: potassium-depolarized rat aorta; conditions: in vitro; cited from earlier work
[2] = test system: K+-depolarized isolated guinea pig ileal segment; assay: Cardiovascular calcium antagonism, guinea pig ileum (in vitro); type: cell-based; conditions: inhibition of contractile response to added calcium (20 µg/ml of CaCl), Ca-free physiological salt solution, 37° C, reference agents; for IC100: Cavia porcellus, read-out: ED100
From the text: Cardiovascular Calcium Antagonism, Guinea Pig Ileum (in vitro):

Compound	ED100 [2] [µg/mL]	IC100 [2] [µg/mL]	other results
CC(C)NC[C@H](O)COc1cccc2ccccc12	–	–	times more potent than the D-enantiomer (β-adrenergic): 100 times
CCOC(=O)C1=C(COCCN)NC(C)=C(C(=O)OC)C1c1ccccc1Cl (single isomer, unassigned; isomer 3) [(-) isomer, 3-ethyl 5-methyl (-)-2-[(2-aminoethoxy)methyl]-4-(2-chlorophenyl)-1,4-dihydro-6-methyl-3,5-pyridine-dicarboxylate]	–	–	activity relative to the racemic mixture in antagonizing calcium-induced constriction [1]: twice as active as the racemic mixture
CC(COc1ccccc1)NC(C)C(O)c1ccc(O)cc1 (stereo not shown) [isoxuprine]	4	–	–
CN(C)CCOC(c1ccccc1)c1ccccc1 [diphenhydramine]	–	1	–
CC(CN1c2ccccc2Sc2ccccc21)N(C)C (stereo not shown) [promethazine]	–	0.25	–
C(=C\c1ccccc1)/CN1CCN(C(c2ccccc2)c2ccccc2)CC1 [cinnazrizine]	1	–	–
CC(C)[N+]1(C)[C@@H]2CC[C@H]1CC(OC(=O)C(CO)c1ccccc1)C2.[Br-] (stereo partly shown) [ipratropium bromide]	>2	–	–
CN1CCC(=C2c3ccccc3C=Cc3ccccc32)CC1 [cyproheptadine]	–	0.025	–
COc1ccc(Cc2nccc3cc(OC)c(OC)cc23)cc1OC [papaverine]	–	4	–
Fc1ccc(C(c2ccc(F)cc2)N2CCN(C/C=C/c3ccccc3)CC2)cc1 [flunarizine]	–	0.1	–
